From patent US11497752B2, “Compounds and uses thereof” (Foghorn Therapeutics Inc., priority 2018, dated 2022)

How the values were obtained:
BRM = BRM (Homo sapiens, UniProt P51531); experiment: ATPase catalytic activity of BRM (ADP-Glo in vitro biochemical assay); details: for BRM Max % Inhibition: Table 6
BRG-1 = BRG-1 (Homo sapiens, UniProt P51532); experiment: ATPase catalytic activity of BRG-1 (ADP-Glo in vitro biochemical assay); details: for BRG1 Max % Inhibition: Table 6
Chain of BRG-1 (P51532 whole entry): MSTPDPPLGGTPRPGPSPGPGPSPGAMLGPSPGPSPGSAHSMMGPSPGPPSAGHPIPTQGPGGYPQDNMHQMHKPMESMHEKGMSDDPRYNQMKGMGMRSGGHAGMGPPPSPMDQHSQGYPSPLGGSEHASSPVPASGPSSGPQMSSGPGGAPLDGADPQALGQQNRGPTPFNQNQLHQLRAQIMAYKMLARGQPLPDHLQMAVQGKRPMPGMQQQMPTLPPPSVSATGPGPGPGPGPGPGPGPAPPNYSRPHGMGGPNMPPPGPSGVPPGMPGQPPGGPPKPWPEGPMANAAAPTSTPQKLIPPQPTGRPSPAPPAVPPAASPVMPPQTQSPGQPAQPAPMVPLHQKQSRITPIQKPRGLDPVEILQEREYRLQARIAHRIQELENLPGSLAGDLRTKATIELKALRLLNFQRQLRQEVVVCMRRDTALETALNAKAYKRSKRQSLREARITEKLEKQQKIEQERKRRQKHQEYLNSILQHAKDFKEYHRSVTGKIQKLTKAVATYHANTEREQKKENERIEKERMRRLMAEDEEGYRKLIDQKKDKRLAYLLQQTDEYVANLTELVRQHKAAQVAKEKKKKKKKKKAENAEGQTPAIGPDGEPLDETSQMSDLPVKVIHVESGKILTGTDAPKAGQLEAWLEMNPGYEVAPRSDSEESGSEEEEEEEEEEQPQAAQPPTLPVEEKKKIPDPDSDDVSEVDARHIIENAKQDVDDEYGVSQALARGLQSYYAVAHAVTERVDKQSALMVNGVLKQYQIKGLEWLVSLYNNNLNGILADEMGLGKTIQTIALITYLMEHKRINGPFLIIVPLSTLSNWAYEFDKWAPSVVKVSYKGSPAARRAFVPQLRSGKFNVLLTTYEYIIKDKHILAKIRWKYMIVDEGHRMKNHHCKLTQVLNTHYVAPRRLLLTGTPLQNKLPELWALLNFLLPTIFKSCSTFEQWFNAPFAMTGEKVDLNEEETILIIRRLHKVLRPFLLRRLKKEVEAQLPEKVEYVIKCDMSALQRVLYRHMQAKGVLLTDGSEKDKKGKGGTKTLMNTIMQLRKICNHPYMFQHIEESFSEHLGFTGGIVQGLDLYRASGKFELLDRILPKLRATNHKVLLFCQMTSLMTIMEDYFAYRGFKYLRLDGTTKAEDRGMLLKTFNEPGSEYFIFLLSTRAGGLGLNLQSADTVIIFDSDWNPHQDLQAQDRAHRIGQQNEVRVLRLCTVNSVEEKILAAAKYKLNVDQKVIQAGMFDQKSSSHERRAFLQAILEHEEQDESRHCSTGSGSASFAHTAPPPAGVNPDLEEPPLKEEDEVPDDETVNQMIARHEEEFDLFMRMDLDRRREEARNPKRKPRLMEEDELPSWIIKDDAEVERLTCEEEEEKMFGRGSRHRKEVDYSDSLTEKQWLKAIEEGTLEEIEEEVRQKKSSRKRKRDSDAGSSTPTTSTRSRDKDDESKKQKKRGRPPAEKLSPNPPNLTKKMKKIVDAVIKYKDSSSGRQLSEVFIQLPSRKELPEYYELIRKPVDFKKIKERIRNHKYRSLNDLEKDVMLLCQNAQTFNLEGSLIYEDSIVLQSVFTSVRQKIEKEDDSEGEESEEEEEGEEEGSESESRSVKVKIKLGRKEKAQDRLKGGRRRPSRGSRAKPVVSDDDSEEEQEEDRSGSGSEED

Chain of BRM (P51531 whole entry): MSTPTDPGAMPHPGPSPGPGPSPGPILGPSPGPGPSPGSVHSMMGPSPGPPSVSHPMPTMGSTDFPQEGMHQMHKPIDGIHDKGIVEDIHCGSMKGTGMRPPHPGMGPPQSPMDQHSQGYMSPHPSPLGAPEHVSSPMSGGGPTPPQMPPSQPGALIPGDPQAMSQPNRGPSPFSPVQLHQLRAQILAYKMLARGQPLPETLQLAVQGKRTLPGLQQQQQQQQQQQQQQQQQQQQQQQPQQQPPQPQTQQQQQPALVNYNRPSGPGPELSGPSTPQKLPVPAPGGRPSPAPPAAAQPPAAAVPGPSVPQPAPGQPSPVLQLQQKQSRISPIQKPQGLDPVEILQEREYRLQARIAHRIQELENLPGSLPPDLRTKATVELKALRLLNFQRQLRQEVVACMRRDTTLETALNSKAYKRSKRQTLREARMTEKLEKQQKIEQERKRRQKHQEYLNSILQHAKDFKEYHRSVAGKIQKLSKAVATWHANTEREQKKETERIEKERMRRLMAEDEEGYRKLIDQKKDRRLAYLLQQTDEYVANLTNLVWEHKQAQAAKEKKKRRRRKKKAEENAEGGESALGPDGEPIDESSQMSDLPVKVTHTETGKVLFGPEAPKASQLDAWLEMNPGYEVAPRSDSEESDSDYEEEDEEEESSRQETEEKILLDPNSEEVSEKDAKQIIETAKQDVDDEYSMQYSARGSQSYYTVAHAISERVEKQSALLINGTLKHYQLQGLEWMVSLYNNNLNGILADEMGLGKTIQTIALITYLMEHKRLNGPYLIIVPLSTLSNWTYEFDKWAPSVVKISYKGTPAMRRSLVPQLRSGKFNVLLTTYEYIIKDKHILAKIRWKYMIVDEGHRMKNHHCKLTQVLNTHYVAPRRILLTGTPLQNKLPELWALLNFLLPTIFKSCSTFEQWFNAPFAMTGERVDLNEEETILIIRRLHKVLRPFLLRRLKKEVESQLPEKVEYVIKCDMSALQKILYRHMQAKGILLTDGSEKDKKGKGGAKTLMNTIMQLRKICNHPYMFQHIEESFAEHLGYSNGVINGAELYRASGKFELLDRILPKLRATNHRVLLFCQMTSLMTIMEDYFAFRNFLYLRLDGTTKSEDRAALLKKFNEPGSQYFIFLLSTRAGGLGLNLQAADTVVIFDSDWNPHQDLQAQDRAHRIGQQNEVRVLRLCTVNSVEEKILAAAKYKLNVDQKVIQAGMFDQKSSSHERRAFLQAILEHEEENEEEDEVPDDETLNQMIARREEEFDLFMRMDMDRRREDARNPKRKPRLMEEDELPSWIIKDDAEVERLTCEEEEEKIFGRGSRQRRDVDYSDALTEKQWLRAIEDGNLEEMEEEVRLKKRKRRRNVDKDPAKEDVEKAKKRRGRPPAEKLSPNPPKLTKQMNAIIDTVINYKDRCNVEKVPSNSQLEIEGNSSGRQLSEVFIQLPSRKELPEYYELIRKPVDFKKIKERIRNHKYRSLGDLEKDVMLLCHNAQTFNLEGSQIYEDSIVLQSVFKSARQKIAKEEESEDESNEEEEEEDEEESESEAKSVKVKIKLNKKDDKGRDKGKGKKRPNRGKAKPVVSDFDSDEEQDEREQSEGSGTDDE

| Structure (SMILES) | IC50 (BRM) [nM] | BRM Max % Inhibition (BRM) [%] | IC50 (BRG-1) [nM] | BRG1 Max % Inhibition (BRG-1) |
| --- | --- | --- | --- | --- |
| Nc1ccc(C(=O)NCC(=O)Nc2nc(-c3cccc(-c4ccc(CO)cc4)c3)cs2)cc1 [Compound 153, 4-amino-N-(2-((4-(4′-(hydroxymethyl)-[1,1′-biphenyl]-3-yl)thiazol-2-yl)amino)-2-oxoethyl)benzamide] | < 100 | >90 | < 100 | >80% |
| Nc1ccc(C(=O)NCC(=O)Nc2nc(-c3cccc(-c4cc[n+]([O-])cc4)c3)cs2)cc1 [Compound 156, 4-(3-(2-(2-(4-aminobenzamido)acetamido)thiazol-4-yl)phenyl)pyridine 1-oxide] | 100 to 1000 | >95 | 100 to 1000 | >90% |
| NCC1CC=C(c2cccc(-c3csc(NC(=O)CNC(=O)c4ccc(N)cc4)n3)c2)CC1 (stereo not shown) [Compound 158, 4-amino-N-(2-((4-(4′-(aminomethyl)-2′,3′,4′,5′-tetrahydro-[1,1′-biphenyl]-3-yl)thiazol-2-yl)amino)-2-oxoethyl)benzamide] | 100 to 1000 | >90 | 100 to 1000 | >95% |
| Nc1ccc(C(=O)NCC(=O)Nc2nc(-c3cccc(-c4ccn(C5CCOCC5)n4)c3)cs2)cc1 [Compound 162, 4-amino-N-(2-oxo-2-((4-(3-(1-(tetrahydro-2H-pyran-4-yl)-1H-pyrazol-3-yl)phenyl)thiazol-2-yl)amino)ethyl)benzamide] | < 100 | >95 | < 100 | >95% |
| CN(C)CCn1ccc2ccc(-c3csc(NC(=O)CNC(=O)c4ccc(N)cc4)n3)cc2c1=O [Compound 167, 4-amino-N-(2-((4-(2-(2-(dimethylamino)ethyl)-1-oxo-1,2-dihydroisoquinolin-7-yl)thiazol-2-yl)amino)-2-oxoethyl)benzamide] | 100 to 1000 | >95 | 100 to 1000 | >95% |
| NCC1CCC(c2cccc(-c3csc(NC(=O)CNC(=O)c4ccc(N)cc4)n3)c2)CC1 (stereo not shown) [Compound 169, 4-amino-N-(2-((4-(3-(4-(aminomethyl)cyclohexyl)phenyl)thiazol-2-yl)amino)-2-oxoethyl)benzamide] | 100 to 1000 | >95 | 100 to 1000 | >95% |
| CN(C)CCn1cc(-c2cccc(-c3csc(NC(=O)CNC(=O)c4ccc(N)cc4)n3)c2)ccc1=O [Compound 170, 4-amino-N-(2-((4-(3-(1-(2-(dimethylamino)ethyl)-6-oxo-1,6-dihydropyridin-3-yl)phenyl)thiazol-2-yl)amino)-2-oxoethyl)benzamide] | 100 to 1000 | >95 | 100 to 1000 | >95% |
| NCCn1ccc2ccc(-c3csc(NC(=O)CNC(=O)c4ccc(N)cc4)n3)cc2c1=O [Compound 171, 4-amino-N-(2-((4-(2-(2-aminoethyl)-1-oxo-1,2-dihydroisoquinolin-7-yl)thiazol-2-yl)amino)-2-oxoethyl)benzamide] | 100 to 1000 | >95 | 100 to 1000 | >95% |
| Nc1ccc(C(=O)N[C@@H](CO)C(=O)Nc2nc(-c3cccc(-c4ccncc4)c3)cs2)cc1 [Compound 172, (S)-4-amino-N-(3-hydroxy-1-oxo-1-((4-(3-(pyridin-4-yl)phenyl)thiazol-2-yl)amino)propan-2-yl)benzamide] | 100 to 1000 | >95 | 100 to 1000 | >90% |

Second part, the molecule after the results:

| IC50 (BRM) [nM] | BRM Max % Inhibition (BRM) [%] | IC50 (BRG-1) [nM] | BRG1 Max % Inhibition (BRG-1) | Structure (SMILES) |
| --- | --- | --- | --- | --- |
| 100 to 1000 | >90 | 100 to 1000 | >80% | Nc1ccc(C(=O)NCC(=O)Nc2nc(-c3cccc(-c4cccc(F)c4)c3)cs2)cc1 [Compound 152, 4-amino-N-(2-((4-(3′-fluoro-[1,1′-biphenyl]-3-yl)thiazol-2-yl)amino)-2-oxoethyl)benzamide] |
| < 100 | >95 | < 100 | >95% | Nc1ccc(C(=O)NCC(=O)Nc2nc(-c3cccc(-c4cccc(CO)c4)c3)cs2)cc1 [Compound 154, 4-amino-N-(2-((4-(3′-(hydroxymethyl)-[1,1′-biphenyl]-3-yl)thiazol-2-yl)amino)-2-oxoethyl)benzamide] |
| < 100 | >95 | < 100 | >90% | N#Cc1cccc(-c2cccc(-c3csc(NC(=O)CNC(=O)c4ccc(N)cc4)n3)c2)c1 [Compound 157, 4-amino-N-(2-((4-(3′-cyano-[1,1′-biphenyl]-3-yl)thiazol-2-yl)amino)-2-oxoethyl)benzamide] |
| 100 to 1000 | >90 | 100 to 1000 | >95% | Nc1ccc(C(=O)NCC(=O)Nc2nc(-c3cccc(-c4ccnc(N5CCNCC5)c4)c3)cs2)cc1 [Compound 159, 4-amino-N-(2-oxo-2-((4-(3-(2-(piperazin-1-yl)pyridin-4-yl)phenyl)thiazol-2-yl)amino)ethyl)benzamide] |
| 100 to 1000 | >95 | 100 to 1000 | >95%, | NCCNc1cc(-c2cccc(-c3csc(NC(=O)CNC(=O)c4ccc(N)cc4)n3)c2)ccn1 [Compound 160, 4-amino-N-(2-((4-(3-(2-((2-aminoethyl)amino)pyridin-4-yl)phenyl)thiazol-2-yl)amino)-2-oxoethyl)benzamide] |
| < 100 | >95 | 100 to 1000 | >95% | NCCOc1cc(-c2cccc(-c3csc(NC(=O)CNC(=O)c4ccc(N)cc4)n3)c2)ccn1 [Compound 163, 4-amino-N-(2-((4-(3-(2-(2-aminoethoxy)pyridin-4-yl)phenyl)thiazol-2-yl)amino)-2-oxoethyl)benzamide] |
| < 100 | >95 | < 100 | >95% | NCc1cc(-c2cccc(-c3csc(NC(=O)CNC(=O)c4ccc(N)cc4)n3)c2)ccn1 [Compound 164, 4-amino-N-(2-((4-(3-(2-(aminomethyl)pyridin-4-yl)phenyl)thiazol-2-yl)amino)-2-oxoethyl)benzamide] |
| < 100 | >95 | < 100 | >95% | Nc1ccc(C(=O)NCC(=O)Nc2nc(-c3cccc(-c4ccnc(CO)c4)c3)cs2)cc1 [Compound 165, 4-amino-N-(2-((4-(3-(2-(hydroxymethyl)pyridin-4-yl)phenyl)thiazol-2-yl)amino)-2-oxoethyl)benzamide] |
| 100 to 1000 | >95 | 100 to 1000 | >95% | NCCn1ccc(-c2cccc(-c3csc(NC(=O)CNC(=O)c4ccc(N)cc4)n3)c2)cc1=O [Compound 166, 4-amino-N-(2-((4-(3-(1-(2-aminoethyl)-2-oxo-1,2-dihydropyridin-4-yl)phenyl)thiazol-2-yl)amino)-2-oxoethyl)benzamide] |
| < 100 | >95 | < 100 | >95% | CN(C)Cc1cc(-c2cccc(-c3csc(NC(=O)CNC(=O)c4ccc(N)cc4)n3)c2)ccn1 [Compound 168, 4-amino-N-(2-((4-(3-(2-((dimethylamino)methyl)pyridin-4-yl)phenyl)thiazol-2-yl)amino)-2-oxoethyl)benzamide] |
